Test results: ChEMBL document CHEMBL2040814, “Synthesis and biological activity of substituted 2,4-diaminopyrimidines that inhibit Bacillus anthracis” (2012)
Values after ≈ are worked out from the molar mass of the structure shown.

Test system: Bacillus anthracis
Test: Antibacterial activity against Bacillus anthracis Sterne after 16 hrs by alamar blue broth microdilution technique
Assay type: functional

Row | SMILES | MIC
1 | COc1cc(Cc2cnc(N)nc2N)cc(/C=C/C(=O)N2N=Cc3ccccc3C2c2ccc(C)cc2)c1OC (racemic) | 1 µg/mL (≈ 1.87 µM)
2 | COc1cc(Cc2cnc(N)nc2N)cc(/C=C/C(=O)N2N=Cc3ccccc3C2c2cc(C)cc(C)c2)c1OC (racemic) | 4 µg/mL (≈ 7.29 µM)
3 | COc1cc(Cc2cnc(N)nc2N)cc(/C=C/C(=O)N2N=Cc3ccccc3C2c2cccc(F)c2)c1OC (racemic) | 2 µg/mL (≈ 3.71 µM)
4 | COc1cc(Cc2cnc(N)nc2N)cc(/C=C/C(=O)N2N=Cc3ccccc3C2C2CCCCC2)c1OC (racemic) | 1 µg/mL (≈ 1.9 µM)
5 | COc1cc(Cc2cnc(N)nc2N)cc(/C=C/C(=O)N2N=Cc3ccccc3C2c2ccccc2)c1OC (racemic) | 0.375 µg/mL (≈ 0.72 µM)
6 | COc1ccc(CC2c3ccccc3C=NN2C(=O)/C=C/c2cc(Cc3cnc(N)nc3N)cc(OC)c2OC)cc1 (racemic) | 8 µg/mL (≈ 14.2 µM)
7 | COc1cc(Cc2cnc(N)nc2N)cc(/C=C/C(=O)N2N=Cc3ccccc3C2C(C)C)c1OC (racemic) | 1 µg/mL (≈ 2.06 µM)
8 | COc1cc(Cc2cnc(N)nc2N)cc(/C=C/C(=O)N2N=Cc3ccccc3C2CCC(F)(F)F)c1OC (racemic) | 1 µg/mL (≈ 1.85 µM)
9 | COc1cc(Cc2cnc(N)nc2N)cc(/C=C/C(=O)N2N=Cc3ccccc3C2c2ccccc2C)c1OC (racemic) | 8 µg/mL (≈ 15 µM)
10 | COc1cc(Cc2cnc(N)nc2N)cc(/C=C/C(=O)N2N=Cc3ccccc3C2Cc2ccc(C)cc2)c1OC (racemic) | 4 µg/mL (≈ 7.29 µM)
11 | COc1cc(Cc2cnc(N)nc2N)cc(/C=C/C(=O)N2N=Cc3ccccc3C2Cc2ccccc2)c1OC (racemic) | 8 µg/mL (≈ 15 µM)
12 | COc1cc(Cc2cnc(N)nc2N)cc(/C=C/C(=O)N2N=Cc3ccccc3C2CC(C)C)c1OC (racemic) | 1 µg/mL (≈ 2 µM)
13 | COc1cc(Cc2cnc(N)nc2N)cc(/C=C/C(=O)N2N=Cc3ccccc3C2c2ccc(F)cc2)c1OC (racemic) | 1 µg/mL (≈ 1.86 µM)
14 | CCCC1c2ccccc2C=NN1C(=O)/C=C/c1cc(Cc2cnc(N)nc2N)cc(OC)c1OC (racemic) | 1 µg/mL (≈ 2.06 µM)
15 | COc1cc(Cc2cnc(N)nc2N)cc(/C=C/C(=O)N2N=Cc3ccccc3C2Cc2ccc(OC(F)(F)F)cc2)c1OC (racemic) | 4 µg/mL (≈ 6.47 µM)
16 | CCC(CC)C1c2ccccc2C=NN1C(=O)/C=C/c1cc(Cc2cnc(N)nc2N)cc(OC)c1OC (racemic) | 4 µg/mL (≈ 7.77 µM)
